Drawing on patent US6818649B2, “Chromenylmethyl pyrimidinediamines as antibacterial agents” (Basilea Pharmaceutica AG, priority 2000, dated 2004), this text covers melting point, MIC and IC50 for 32 compounds.

The subject of data set [1] is Streptococcus pneumoniae 1/1, Trimethoprim- and Penicillin-resistant, Serotype 6; clinical isolate. As to the kind of experiment: MIC against Streptococcus pneumoniae 1/1. It is filed as cell-based. The conditions noted are these: read-out: MIC Spn1/1. The method, then: (§1) The following Table contains inhibitory concentrations determined in the above test for representative members of the class of compound defined by formula I. The following microorganisms were tested: […]
Col. 1: MIC Spn1/1; μg/ml (Streptococcus pneumoniae 1/1, Trimethoprim- and Penicillin-resistant, Serotype 6; clinical isolate, stored at −80° C.)
Lit.: H. Locher et al., Can. J. Infect. Dis.6: Suppl. C, p 469C.

Data set [2] deals with Staphylococcus aureus 101, MRSA and Trimethoprim-resistant; clinical isolate. As to the kind of experiment: MIC against Staphylococcus aureus 101. In kind it is cell-based. The conditions noted are these: read-out: MIC Sa101. The protocol: as §1
Col. 2: MIC Sa101; μg/ml (Staphylococcus aureus 101, MRSA^*)— and Trimethoprim-resistant; clinical isolate, stored at −80° C.)
^*) MRSA=Methicillin Resistant Staphylococcus Aureus

The target of data set [3] is purified DHFR of the strain 157/4696 (highly trimethoprim-resistant; clinical isolate) of Staphylococcus aureus (Staphylococcus aureus, UniProt P13955). The data set is described as follows: biochemical.
From the text: The inhibition of the enzyme was taken as a measurement for the antibacterial activity.
The target of data set [4] is T1, purified DHFR of strain Sp1/1 of Streptococcus pneumoniae (Streptococcus pneumoniae, UniProt Q54801).
T1 sequence (Q54801 1-168): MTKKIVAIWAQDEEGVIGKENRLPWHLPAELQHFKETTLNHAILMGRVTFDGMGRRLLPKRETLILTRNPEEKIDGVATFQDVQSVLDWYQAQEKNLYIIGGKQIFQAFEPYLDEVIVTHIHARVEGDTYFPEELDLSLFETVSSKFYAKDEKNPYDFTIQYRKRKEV
The conditions noted are these: read-out: DHFR Spn1/1 (IC50); purified DHFR of S. pneumoniae strain Spn1/1; IC50 determined graphically.
From the text: 3: DHFR Spn1/1; μM—the IC50-values in μM against the purified DHFR of the above strain Sp1/1 of Streptococcus pneumoniae.

Structures are written as SMILES. In brackets after ≈: the same amount, converted by molar mass.

Take `CCOc1cc(Cc2cnc(N)nc2N)cc2c1OC(C)(C)C=C2[Si](C)(C)C`: the melting point (usually the temperature of the solid-liquid transition) was 189 to 190 °C.

Consider `CCOc1cc(Cc2cnc(N)nc2N)cc(OCC)c1-n1cccc1` [Epiroprim, reference compound], for which the MIC in data set [1] worked out at 4 µg/mL (≈ 11.3 µM); in data set [2], 16 µg/mL (≈ 45.3 µM). Also, in data set [3], the IC50 amounted to 2000 nM.

Turning to `COc1cc(Cc2cnc(N)nc2N)cc2c1OC(C)(C)C=C2Br` [Example 2, 5-(4-Bromo-8-methoxy-2,2-dimethyl-2H-chromen-6-ylmethyl) -pyrimidine-2,4-diamine], the MIC in data set [1] was determined as 4 µg/mL (≈ 10.2 µM); in data set [2], 1 µg/mL (≈ 2.56 µM). In addition, the IC50 in data set [3] came to 150 nM; in data set [4], 52 nM.

Turning to `CCC1=CC(C)(C)Oc2c(OC)cc(Cc3cnc(N)nc3N)cc21` [Example 3, 5-(4-Ethyl-8-methoxy-2,2-dimethyl-2H-chromen-6-ylmethyl)-pyrimidine-2,4-diamine], the melting point was in the range of 256 to 257 °C.

For the compound `COc1cc(Cc2cnc(N)nc2N)cc2c1OC(C)(C)C=C2SC` [Example 4, 5-(8-Methoxy-2,2-dimethyl-4-methylsulfanyl-2H-chromen-6-ylmethyl)-pyrimidine-2,4-diamine], the figures for the MIC in data set [1] and in data set [2] were 4 µg/mL (≈ 11.2 µM) and 2 µg/mL (≈ 5.58 µM), respectively. Also, the IC50 in data set [3] was 88 nM; in data set [4], 78 nM.

For `COc1cc(Cc2cnc(N)nc2N)cc2c1OC(C)(C)C=C2CO` [Example 5, [6-(2,4-Diamino-pyrimidin-5-ylmethyl)-8-methoxy-2,2-dimethyl-2H-chromen-4-yl]-methanol], the melting point fell in the range of 239 to 240 °C.

As for `CCOc1cc(Cc2cnc(N)nc2N)cc2c1OC(C)(C)C=C2Br` [Example 7, 5-(4-Bromo-8-ethoxy-2,2-dimethyl-2H-chromen-6-ylmethyl)-pyrimidine-2,4-diamine], the MIC in data set [1] and in data set [2] was 0.5 µg/mL (≈ 1.23 µM) each time. In addition, the values for the IC50 in data set [3] and in data set [4] were 110 nM and 0.33 nM, respectively.

Turning to `CCOc1cc(Cc2cnc(N)nc2N)cc2c1OC(C)(C)C=C2CO` [Example 13, [6-(2,4-Diamino-pyrimidin-5-ylmethyl)-8-ethoxy-2,2-dimethyl-2H-chromen-4-yl]-methanol], the melting point was in the range of 187 to 189 °C.

The compound `CCOc1cc(Cc2cnc(N)nc2N)cc2c1OC(C)(C)C=C2C#CC(C)O` (centres unmarked) [Example 15, 4-[6-(2,4-Diamino-pyrimidin-5-ylmethyl)-8-ethoxy-2,2-dimethyl-2H-chromen-4-yl]-but-3-yn-2-ol] displayed a melting point of 218 to 219 °C.

In turn, `CCOc1cc(Cc2cnc(N)nc2N)cc2c1OC(C)(C)C=C2` [Example 19, 5-(8-Ethoxy-2,2-dimethyl-2H-chromen-6-ylmethyl)-pyrimidine-2,4-diamine] came in with a melting point of 184 to 186 °C.

Consider `COc1cc(Cc2cnc(N)nc2N)cc2c1OC1(C=C2Br)CCOCC1` [Example 21, 5-[(4-Bromo-2′,3′,5′,6′-tetrahydro-8-methoxyspiro[2H-1-benzopyran-2,4′-[4H]pyran]-6-yl)-methyl]-2,4-pyrimidinediamine], for which the MIC in data set [1] was determined as 4 µg/mL (≈ 9.23 µM); in data set [2] it was 1 µg/mL (≈ 2.31 µM). The results for the IC50 in data set [3] and in data set [4] were 150 nM and 52 nM, respectively.

`COc1cc(Cc2cnc(N)nc2N)cc2c1OC1(C=C2)CCCCC1` [Example 31, 5-[(8-Methoxyspiro[2H-1-benzopyran-2,1′-cyclohexan]-6-yl)methyl]-2,4-pyrimidine-diamine] had a melting point of 181 to 182 °C.

Consider `COc1cc(Cc2cnc(N)nc2N)cc2c1OC(C)(C)C=C2c1cccc(F)c1` [Example 33, 5-[4-(3-Fluoro-phenyl)-8-methoxy-2,2-dimethyl-2H-chromen-6-ylmethyl]-pyrimidine-2,4-diamine], for which the melting point was 267 °C (dec.).

Turning to `CCOc1cc(Cc2cnc(N)nc2N)cc2c1OC(C)(C)C=C2c1cccc(F)c1` [Example 34, 5-[8-Ethoxy-4-(3-fluoro-phenyl)-2,2-dimethyl-2H-chromen-6-ylmethyl]-pyrimidine-2,4-diamine], the melting point lay within 185 to 186 °C.

On to `CCOc1cc(Cc2cnc(N)nc2N)cc2c1OC(C)(C)C=C2c1ccc(F)cc1` [Example 35, 5-[8-Ethoxy-4-(4-fluoro-phenyl)-2,2-dimethyl-2H-chromen-6-ylmethyl]-pyrimidine-2,4-diamine], for which the melting point was 204 to 205 °C (dec.).

In the case of `CCOc1cc(Cc2cnc(N)nc2N)cc2c1OC(C)(C)C=C2c1cccs1` [Example 36, 5-(8-Ethoxy-2,2-dimethyl-4-thiophen-2-yl-2H-chromen-6-ylmethyl)-pyrimidine-2,4-diamine], the melting point was 213 to 214 °C (dec.).

`CCOc1cc(Cc2cnc(N)nc2N)cc2c1OC(C)(C)C=C2c1ccsc1` [Example 37, 5-(8-Ethoxy-2,2-dimethyl-4-thiophen-3-yl-2H-chromen-6-ylmethyl)-pyrimidine-2,4-diamine]: the melting point is 217 °C (dec.).

Compound `COc1cc(Cc2cnc(N)nc2N)cc2c1OC(C)(C)C=C2c1ccccc1` [Example 42, 5-(8-Methoxy-2,2-dimethyl-4-phenyl-2H-chromen-6-ylmethyl) -pyrimidine-2,4-diamine] yielded a melting point of more than 260 °C.

Compound `CCOc1cc(Cc2cnc(N)nc2N)cc2c1OC(C)(C)C=C2C(C)(C)O` [Example 43, 2-[6-(2,4-Diamino-pyrimidin-5-ylmethyl)-8-ethoxy-2,2-dimethyl-2H-chromen-4-yl]-propan-2-ol] had a melting point of 209 to 210 °C.

Consider `CCOc1cc(Cc2cnc(N)nc2N)cc2c1OC(C)(C)C=C2C(C)(O)CC` (centres unmarked) [Example 44, 2-[6-(2,4-Diamino-pyrimidin-5-ylmethyl)-8-ethoxy-2,2-dimethyl-2H-chromen-4-yl]-butan-2-ol], for which the melting point lay in the range of 127 to 128 °C.

On to `C=C(C)C1=CC(C)(C)Oc2c(OCC)cc(Cc3cnc(N)nc3N)cc21` [Example 45, 5-(8-Ethoxy-4-isopropenyl-2,2-dimethyl-2H-chromen-6-ylmethyl)-pyrimidine-2,4-diamine], for which the melting point was in the range of 188 to 189 °C.

As for `COc1cc(Cc2cnc(N)nc2N)cc2c1OC(C)(C)C=C2C#CCO` [Example 46, 3-[6-(2,4-Diamino-pyrimidin-5-ylmethyl)-8-methoxy-2,2-dimethyl-2H-chromen-4-yl]-prop-2-yn-1-ol], the melting point lay in the range of 236 to 237 °C.

`CCOc1cc(Cc2cnc(N)nc2N)cc2c1OC(C)(C)C=C2c1ccncc1` [Example 47, 5-(8-Ethoxy-2,2-dimethyl-4-pyridin-4-yl-2H-chromen-6-ylmethyl)-pyrimidine-2,4-diamine] registered a melting point of 223 to 226 °C.

As to `CCOc1cc(Cc2cnc(N)nc2N)cc2c1OC(C)(C)C=C2c1ccc(OC)c(OC)c1` [Example 48, 5-[4-(3,4-Dimethoxy-phenyl)-8-ethoxy-2,2-dimethyl-2H-chromen-6-ylmethyl]-pyrimidine-2,4-diamine], the melting point lay within 191 to 192 °C.

On to `CCOc1cc(Cc2cnc(N)nc2N)cc2c1OC(C)(C)C=C2c1cccc(NC(C)=O)c1` [Example 49, N-{3-[6-(2,4-Diamino-pyrimidin-5-ylmethyl)-8-ethoxy-2,2-dimethyl-2H-chromen-4-yl]-phenyl}-acetamide], for which the melting point is 145 °C (dec.).

With `CCOc1cc(Cc2cnc(N)nc2N)cc2c1OC(C)(C)C=C2c1cccnc1` [Example 50, 5-(8-Ethoxy-2,2-dimethyl-4-pyridin-3-yl-2H-chromen-6-ylmethyl) -pyrimidine-2,4-diamine], the melting point is 145 °C (dec.).

Compound `COc1cc(Cc2cnc(N)nc2N)cc2c1OC(C)(C)C=C2c1cccs1` [Example 51, 5-(8-Methoxy-2,2-dimethyl-4-thiophen-2-yl-2H-chromen-6-ylmethyl)-pyrimidine-2,4-diamine] returned a melting point of more than 260 °C.

As for `CCOc1ccc(C2=CC(C)(C)Oc3c(OCC)cc(Cc4cnc(N)nc4N)cc32)cc1` [Example 52, 5-[8-Ethoxy-4-(4-ethoxy-phenyl)-2,2-dimethyl-2H-chromen-6-ylmethyl]-pyrimidine-2,4-diamine], the melting point was 186 to 188 °C.

Turning to `COc1cc(Cc2cnc(N)nc2N)cc2c1OC(C)(C)C=C2c1cccc([N+](=O)[O-])c1` [Example 53, 5-[8-Methoxy-2,2-dimethyl-4-(3-nitro-phenyl)-2H-chromen-6-ylmethyl]-pyrimidine-2,4-diamine], the melting point fell in the range of 253 to 254 °C.

As for `CCOc1cc(Cc2cnc(N)nc2N)cc2c1OC(C)(C)C=C2c1cccc(N)c1` [Example 56, 5-[4-(3-Amino-phenyl)-8-ethoxy-2,2-dimethyl-2H-chromen-6-ylmethyl]-pyrimidine-2,4-diamine], the melting point was 196 to 198 °C (dec.).

In turn, `CCOc1cc(Cc2cnc(N)nc2N)cc2c1OC(C)(C)C=C2Cl` [Example 59, 5-(4-Chloro-8-ethoxy-2,2-dimethyl-2H-chromen-6-ylmethyl)-pyrimidine-2,4-diamine] yielded a melting point of 197 to 199 °C.

Consider `COc1cc(Cc2cnc(N)nc2N)cc(OC)c1OC` [Trimethoprim, reference compound], for which the results for the MIC in data set [1] and in data set [2] were more than 32 µg/mL and 32 µg/mL (≈ 110 µM), respectively.
